Test results: patent US10633397B2, “Substituted polycyclic pyridone derivatives and prodrugs thereof” (priority 2015, dated 2020)
Converted amounts (≈) assume the structure as drawn. Where two headings read alike, the source gives them in different places.

Assays:
[1] = test system: influenza virus; assay: CPE inhibitory effect confirming assay; assay type: cell-based; conditions: unidentified influenza virus, 72 h, read-out: CPE_EC50
[2] = in vivo; conditions: oral vs intravenous administration, mice or SD rats, read-out: bioavailability (BA)
Procedure: Materials and Methods for Experiments to Evaluate Oral Absorption
(1) Experimental animals: mice or SD rats were used.
(2) Rearing condition: mice or SD rats were allowed free access to solid feed and sterilized tap water.
(3) Setting of dosage and grouping: Oral administration and intravenous administration were performed with the predetermined dosage. Grouping was set as below. (Dosage was changed per compound)
Oral administration 1 to 30 mg/kg (n=2 to 3)
Intravenous administration 0.5 to 10 mg/kg (n=2 to 3)
(4) Preparation of administration solutions: Oral administration was performed as solution or suspension. Intravenous administration was performed after solubilization.
(5) Routes of administration: Oral administration was performed mandatory into the stomach by oral sonde. […]
(6) Evaluation items: Blood was collected serially and concentration of a compound of the present invention in plasma was measured by LC/MS/MS.
(7) Statistical analysis: About transition of concentration of a compound of the present invention in plasma, the area under the plasma concentration versus time curve (AUC) was calculated by non-linear least-squares method program, WinNonlin (a registered trademark), and bioavailability (BA) of a compound of the present invention was calculated from AUCs of the oral administration group and the intravenous administration group. […]

[3] = in vivo; conditions: rat, SD rats, intravenous administration
Procedure: Test Example 13: Intravenous Administration Test
Examined experimental materials and method of intravenous administration test
(1) Animals used: SD rats were used.
(2) Rearing conditions: Pellets and sterilized tap water were fed to SD rats ad libitum.
(3) Dosage and grouping: A predetermined dosage was intravenously administered. Groups were set as follows. (Dosage varied for each compound)
Intravenous administration 0.5-1 mg/kg (n=2-3)
(4) Preparation of administration solution: Intravenous administration was performed after solubilization.
(5) Administration method: Intravenous administration was performed with a needle-equipped syringe on the caudal vein.
(6) End point: Blood was collected over time, and the plasma concentration of the compound of the present invention was measured using LC/MS/MS.
(7) Statistical analysis: As for the transition of the plasma concentration of the compound of the present invention, the total body clearance (CLtot) and the elimination half-life (t1/2, z) were calculated using nonlinear least-squares program WinNonlin®.

[4] = physchem; assay type: physicochemical; conditions: thermodynamic from solid, 1 hour at 37° C.
Procedure: Test Example 10: Powder Solubility Test
Appropriate amounts of the compound of the present invention was put into vials and 200 μL of JP-1st Fluid (water was added to 2.0 g of sodium chloride in 7.0 mL of hydrochloride acid to reach 1000 mL), JP-2nd Fluid (water was added to 500 mL of phosphate buffer solution with a pH of 6.8) and 20 mmol/L sodium taurocholate (TCA)/JP-2nd Fluid (JP-2nd Fluid was added to 1.08 g of TCA in JP-2nd Fluid to reach 100 mL) was added to each vial. When the compound was completely dissolved, appropriate amount of compound was added. After shaken for 1 hour at 37° C., the mixture was filtered and 100 μL of methanol was added to 100 μL of each filtrate (double dilution). Dilution magnification was changed if necessary. After it was confirmed whether there were air bubbles and precipitates in the vials, the vials were shaken with tight stopper. The compound concentration was determined with HPLC by the absolute calibration method.

[5] = molecular target: T1, hERG (IKr) (Homo sapiens, UniProt Q12809); assay: hERG test; assay type: cell-based; conditions: HEK293 cells expressing hERG channel, pH 7.4, 0.3 to 10 μM of test compound, read-out: % inhibition of tail peak current (IKr)
T1 construct: expressed in transfected cells; host or cells: HEK293
T1 sequence (Q12809 whole entry): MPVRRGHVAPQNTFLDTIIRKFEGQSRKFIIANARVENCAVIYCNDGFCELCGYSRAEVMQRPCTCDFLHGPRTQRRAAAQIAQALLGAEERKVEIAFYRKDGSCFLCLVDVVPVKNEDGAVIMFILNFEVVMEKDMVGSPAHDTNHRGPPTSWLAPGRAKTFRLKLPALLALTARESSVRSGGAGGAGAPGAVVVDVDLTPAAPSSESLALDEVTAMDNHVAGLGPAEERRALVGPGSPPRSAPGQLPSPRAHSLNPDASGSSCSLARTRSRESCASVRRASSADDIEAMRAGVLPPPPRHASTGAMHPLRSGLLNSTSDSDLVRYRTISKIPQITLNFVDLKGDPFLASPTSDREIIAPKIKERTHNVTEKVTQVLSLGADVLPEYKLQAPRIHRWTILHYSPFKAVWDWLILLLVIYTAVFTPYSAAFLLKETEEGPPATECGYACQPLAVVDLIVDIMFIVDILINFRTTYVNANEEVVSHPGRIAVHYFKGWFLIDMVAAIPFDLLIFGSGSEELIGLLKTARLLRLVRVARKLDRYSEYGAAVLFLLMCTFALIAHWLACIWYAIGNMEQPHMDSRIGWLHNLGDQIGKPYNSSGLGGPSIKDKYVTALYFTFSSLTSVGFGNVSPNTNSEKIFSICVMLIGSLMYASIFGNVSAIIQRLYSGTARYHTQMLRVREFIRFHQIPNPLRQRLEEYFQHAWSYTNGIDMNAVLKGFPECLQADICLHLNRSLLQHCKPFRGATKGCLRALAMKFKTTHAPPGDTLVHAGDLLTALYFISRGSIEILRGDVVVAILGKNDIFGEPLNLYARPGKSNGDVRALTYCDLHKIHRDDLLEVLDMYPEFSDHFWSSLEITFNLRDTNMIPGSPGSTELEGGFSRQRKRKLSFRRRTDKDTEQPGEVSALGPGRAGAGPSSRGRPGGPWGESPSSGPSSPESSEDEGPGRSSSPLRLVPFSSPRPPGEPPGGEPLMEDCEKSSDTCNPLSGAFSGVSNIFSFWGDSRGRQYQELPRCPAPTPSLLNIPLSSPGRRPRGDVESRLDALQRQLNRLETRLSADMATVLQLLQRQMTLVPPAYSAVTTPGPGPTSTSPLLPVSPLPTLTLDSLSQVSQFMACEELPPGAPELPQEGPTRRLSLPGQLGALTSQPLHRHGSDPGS
Description: Test Example 8: hERG Test
For the purpose of assessing risk of an electrocardiogram QT interval prolongation of the compound of the present invention, effects of the compound of the present invention on delayed rectifier K+ current (IKr), which plays an important role in the ventricular repolarization process, was studied using HEK293 cells expressing human ether-a-go-go related gene (hERG) channel.
After a cell was retained at a membrane potential of −80 mV by whole cell patch clamp method using an automated patch clamp system (PatchXpress 7000A, Axon Instruments Inc.), IKr induced by depolarization pulse stimulation at +40 mV for 2 seconds and, further, repolarization pulse stimulation at −50 mV for 2 seconds, was recorded. After the generated current was stabilized, extracellular solution (NaCl: 135 mmol/L, KCl: 5.4 mmol/L, NaH2PO4: 0.3 mmol/L, CaCl2.2H2O: 1.8 mmol/L, MgCl2.6H2O: 1 mmol/L, glucose: 10 mmol/L, HEPES (4-(2-hydroxyethyl)-1-piperazineethanesulfonic acid): 10 mmol/L, pH=7.4), in which the compound of the present invention had been dissolved at an objective concentration, was applied to the cell at room temperature for 10 minutes. From the recording IKr, an absolute value of the tail peak current was measured based on the current value at the resting membrane potential using analysis software (DataXpress ver. 1, Molecular Devices Corporation).

[6] = Metabolism stability test; assay type: in vitro ADME; conditions: human liver microsomes, 30 minutes, 37° C., 2 μmol/L of test compound
Procedure: Test Example 5: Metabolism Stability Test
Using commercially available pooled human hepatic microsomes, a compound of the present invention was reacted for a constant time, and a remaining rate was calculated by comparing a reacted sample and an unreacted sample, thereby, a degree of metabolism in liver was assessed.
A reaction was performed (oxidative reaction) at 37° C. for 0 minute or 30 minutes in the presence of 1 mmol/L NADPII in 0.2 mL of a buffer (50 mmol/L Tris-HCl pH 7.4, 150 mmol/L potassium chloride, 10 mmol/L magnesium chloride) containing 0.5 mg protein/mL of human liver microsomes. After the reaction, 50 μL of the reaction solution was added to 100 μL of a methanol/acetonitrile=1/1 (v/v), mixed and centrifuged at 3000 rpm for 15 minutes. The compound of the present invention in the supernatant was quantified by LC/MS/MS or Solid Phase Extraction (SPE)/MS, and a remaining amount of the compound of the present invention after the reaction was calculated, letting a compound amount at 0 minute reaction time to be 100%. Hydrolysis reaction was performed in the absence of NADPII and glucuronidation reaction was in the presence of 5 mM UDP-glucuronic acid in place of NADPH, followed by similar operations.

O=C1c2c(O)c(=O)ccn2N([C@@H]2c3ccccc3SCc3c2ccc(F)c3F)[C@@H]2COCCN12 [III-2] gave an EC50 [1] of 1.13 nM, a bioavailability [2] of 4.2% and a half-life ([3]; read-out: elimination half-life (t1/2, z) (converted)) of 3.4 h. It also gave a clearance ([3]; read-out: total body clearance (CLtot)) of 16.4 mL/min/kg, a solubility ([4]; pH 1.2, simulated gastric fluid, JP-1 solution, read-out: powder solubility, JP-1 solution) of 7.1 µg/mL (≈ 14.7 µM) and a solubility ([4]; pH 6.8, aqueous buffer, JP-2 solution, read-out: powder solubility, JP-2 solution) of 4.4 µg/mL (≈ 9.1 µM). The solubility ([4]; pH 6.8, fassgf or other biorelevant, 20 mmol/L TCA/JP-2 solution) was 16.1 µg/mL (≈ 33.3 µM), the inhibition at 10 min [5] was 7.9% and the “% compound remaining after microsomal incubation” value [6] was 90.1%.
